Measured values published in patent US10646591B2, “Imaging agents for imaging protease activity and uses thereof” (The United States of America, as represented by the …, priority 2011, dated 2020).

Key:
[1] = system: MMP- and αvβ3 integrin receptor-positive U87MG tumor; test: In vivo optical imaging of U87MG tumor-bearing mice; settings: for fluorescent signals in the tumor over time: 0.5 nmol injected
Description: Female athymic nude mice were supplied from Harlan at 4 to 5 weeks of age. The U87MG tumor model was generated by subcutaneous injection of 5×10^6 cells in Matrigel (BD Biosciences, Sparks, Md.) into the right front flank of female athymic nude mice at a volume of about 80 μl. The mice were then used for optical studies when the tumor volume reached about 300 mm^3. All animal studies were conducted in accordance with the principles and procedures outlined in the Guide for the Care and Use of Laboratory Animals and were approved by the Institutional Animal Care and Use Committee of Clinical Center, NIH.
Optical imaging acquirement and analysis were done using a Maestro 2.10 in vivo imaging system (CRI). […] The molar concentration of each samples were calculated by the sample weight. At 1, 2, 3, and 4 hours post-injection, the mice were subjected to optical imaging using appropriate filters for Cy5.5 and CW800. For the inhibition experiment, MMP inhibitor was intratumorally injected into tumor bearing mice 30 minutes before the imaging agent injection. After image acquisition, spectral unmixing yielded the pseudocolor images of the pure spectrum of respective dyes. Images were normalized and analyzed using Maestro software. For quantitative comparison, regions of interest (ROI) were drawn over tumors and muscle, and the average signal ([…]) for each area was measured. Values were expressed as mean±s.d. for a group of three animals.
It should be noted that only a limited dose of dye-labeled peptide probe like compounds 5 and 7 can be injected for whole body imaging, because of its high fluorescent background from the dye. In contrast, since fluorogenic probes are strongly quenched and a majority of the probe is activated at the target site, higher doses of the imaging agents of the present invention can be injected to enhance the ratio of region-of-interest (ROI) signal of tumor to normal tissue, muscle (T/N), at very early times. After injection, in vivo optical imaging was performed for 4 hours using a small animal imaging system (Maestro 2) equipped with appropriate filters for Cy5.5 and CW800.

U87MG tumor = test: Ex vivo biodistribution in U87MG tumor-bearing mice; settings: 4 hour time point
Description: Ex vivo imaging of excised tumor and organs further confirmed the targeting specificity and activation of the probes (data not shown). At 4 hours post-injection, the mice were sacrificed and major organ tissues and tumors were harvested, and placed on black paper for ex vivo imaging. For quantitative comparison, ROIs were drawn over tumors and the other organs, and the average signal for each area was measured. The results were presented as the average scaled signal from the organs and tumors. Values were expressed as mean±s.d. for a group of three animals.
T/N ratios are illustrated in FIG. 12A. […] After whole-mouse imaging at a 4 hour time point, tumors and organs were carefully removed and the biodistribution of compounds 4 and 6 was evaluated (FIG. 12B).

U87MG cells = test: Fluorescent microscopic study of receptor specificity in fixed U87MG cells; assay type: cell-based, human
Description: The U87MG cell is known to have high αvβ3 integrin density on the cell surface. […] Next, receptor specificity of the probes in cell culture was verified by fluorescent microscopic studies. […] (data not shown).

MMP-positive SCC-7 tumor = test: In vivo NIR fluorescence imaging of SCC-7 tumor-bearing mice; settings: intravenous, imaging for 24 hours, compared to other MMP-Pns and MMPSense 680
Description: Squamous cell carcinoma SCC-7 were cultured in RPMI 1640 medium containing 10% (v/v) fetal bovine serum (Invitrogen, Carlsbad, Calif.) supplemented with penicillin (100 μg/ml) and streptomycin (100 μg/ml) at 37° C. with 5% CO2. The SCC-7 tumor model was developed by subcutaneous injection of 1×10^6 cells into the right front flank of female athymic nude mice (Harlan Laboratories, Indianapolis, Ind.). The mice were used for optical studies when the tumor volume reached about 300 mm^3. […]
Optical image acquisition and analysis were done using a Maestro 2 imaging system (Cambridge Research & Instrumentation, Inc. (CRI), Woburn, Mass.). […] Images were normalized and analyzed by using Maestro software. For quantitative comparison, the regions of interest (ROI) were drawn over tumor (T) and normal tissue (N, muscle), and the average signal (×10^6 photons×cm^−2×s^−1) for each area was measured. […]
The MMP-Pns imaging agents used in Example 2, were then used to create a video image of the activity of MMPs in vivo. […] The MMP-P12 generated strong NIR fluorescence signals as early as 20 to 30 minutes after the probe injection and enabled clear visualization of MMPs in the tumor region thereafter.

## CCN(CC)c1ccc2nc3ccc(/N=N/c4ccc(N(C)CCCC(=O)NCCCC[C@H](NC(=O)CNC(=O)[C@H](CCCNC(=N)N)NC(=O)[C@@H](NC(=O)CNC(=O)[C@H](CC(C)C)NC(=O)[C@@H]5CCCN5C(=O)CNC(=O)CCCCCN5/C(=C/C=C/C=C/C6=[N+](CC)c7ccc8c(S(=O)(=O)O)cc(S(=O)(=O)[O-])cc8c7C6(C)C)C(C)(C)c6c5ccc5c(S(=O)(=O)O)cc(S(=O)(=O)[O-])cc65)C(C)C)C(=O)NCC(=O)NCC(=O)NCCCC[C@@H]5NC(=O)[C@@H](Cc6ccc(O)cc6)NC(=O)[C@H](CC(=O)O)NC(=O)CNC(=O)[C@H](CCCNC(=N)N)NC5=O)cc4)cc3[n+](-c3ccccc3)c2c1 [compound 4]
[1]; MMP inhibitor intratumorally 30 minutes before probe
  NIR fluorescence signal from the tumor with MMP inhibitor: significantly reduced
[1]; c(RGDyK) 200 nmol, 30 minutes post-injection
  tumor uptake with excess unlabeled c(RGDyK): effectively blocked
[1]; from 1 hour post-injection
  brightness of NIR fluorescent images: brighter NIR fluorescent images compared to compound 6
[1]; intravenous, imaging for 4 hours
  visualization of MMP expression in MMP positive tumor: enabled visualization of MMP expression
U87MG tumor
  ex vivo biodistribution (site of activation): predominantly activated in the tumors

## CC[N+]1=C(/C=C/C=C/C=C2/N(CCCCCC(=O)NCC(=O)N3CCC[C@H]3C(=O)N[C@@H](CC(C)C)C(=O)NCC(=O)N[C@H](C(=O)N[C@@H](CCCNC(=N)N)C(=O)NCC(=O)N[C@@H](CCCCN)C(=O)NCC(=O)NCC(=O)NCCCC[C@@H]3NC(=O)[C@@H](Cc4ccc(O)cc4)NC(=O)[C@H](CC(=O)O)NC(=O)CNC(=O)[C@H](CCCNC(=N)N)NC3=O)C(C)C)c3ccc4c(S(=O)(=O)O)cc(S(=O)(=O)O)cc4c3C2(C)C)C(C)(C)c2c1ccc1c(S(=O)(=O)O)cc(S(=O)(=O)O)cc21 [compound 5]
[1]
  fluorescent signals in the tumor over time: gradually increased
U87MG cells; 30 minutes of incubation at 37° C.
  fluorescent signals on the cell membranes: Strong positive fluorescent signals
U87MG cells; blocking dose of c(RGDyK) 10 μM
  binding with receptor blocking by excess c(RGDyK): significantly decreased

## CC1(C)C(/C=C/C2=C(Oc3ccc(S(=O)(=O)O)cc3)C(=C/C=C3/N(CCCCS(=O)(=O)O)c4ccc(S(=O)(=O)O)cc4C3(C)C)/CCC2)=[N+](CCCCCC(=O)NCCCC[C@@H]2NC(=O)[C@@H](Cc3ccc(O)cc3)NC(=O)[C@H](CC(=O)O)NC(=O)CNC(=O)[C@H](CCCNC(=N)N)NC2=O)c2ccc(S(=O)(=O)O)cc21 [compound 7]
[1]
  fluorescent signals in the tumor over time: gradually increased

## MMP-P4: Cy5.5-GPLGVRGK(BHQ3)GG-R, R = -NH(CH2CH2O)4H
MMP-positive SCC-7 tumor
  onset of activation in vivo, NIR fluorescence in tumor region: early onset of activation in vivo
